# Patent US12661342B2, “Heteroaryl compounds and therapeutic uses thereof in conditions associated with the alteration of the activity of beta-glucocerebrosidase” (GT GAIN THERAPEUTICS SA, priority 2019, dated 2026)
# Molecular target: T1, β-glucocerebrosidase (Homo sapiens, UniProt P04062, L483P)
# T1 construct: host or cells: human Gaucher disease patient fibroblasts GM08760A
# T1 sequence (P04062 40-536 L483P): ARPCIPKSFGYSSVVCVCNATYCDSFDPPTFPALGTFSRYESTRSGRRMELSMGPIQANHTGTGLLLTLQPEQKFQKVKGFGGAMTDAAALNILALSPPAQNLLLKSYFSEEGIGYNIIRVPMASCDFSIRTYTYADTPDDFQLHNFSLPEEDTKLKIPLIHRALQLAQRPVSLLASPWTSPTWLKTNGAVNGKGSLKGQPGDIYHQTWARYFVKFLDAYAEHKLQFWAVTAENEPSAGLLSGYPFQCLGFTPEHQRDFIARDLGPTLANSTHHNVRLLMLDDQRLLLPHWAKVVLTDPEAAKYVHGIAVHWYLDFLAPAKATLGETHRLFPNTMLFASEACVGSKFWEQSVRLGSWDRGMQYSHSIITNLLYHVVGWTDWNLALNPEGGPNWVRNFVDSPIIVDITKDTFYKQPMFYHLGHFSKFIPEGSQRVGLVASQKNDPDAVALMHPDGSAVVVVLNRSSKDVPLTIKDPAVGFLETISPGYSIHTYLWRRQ
# Assay: Enhancement of β-glucocerebrosidase activity measured in Gaucher disease fibroblasts (4-MU-β-D-glucopyranoside substrate, intact cells)
# Assay type: cell-based
# Settings: GBA fibroblasts bearing L444P (GM08760A, homozygous p.L444P); compound at concentrations between 6 and 50 μM; 4 days incubation
# In short: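 Patient fibroblasts homozygous for p.L444P (GM08760A), grown in DMEM/10% FBS and exposed to compound for 4 days. Intact cells then given 4-MU-β-D-glucopyranoside in 0.1 M acetate pH 4, 1 h, 37 °C; stopped at pH 10.7, 4-MU fluorescence ex 340/em 460. Value is fold increase over untreated cells; binned at 6–50 μM.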
row,Compound,Range: increase in enzyme activity in comparison with non-treated cells (Enzyme activity assay for compounds of Examples 33-141)
1,"CN(C(=O)c1cc(N)cc(Nc2ccccc2F)n1)C1Cc2ccccc2C1.Cl [Example 132, 4-Amino-N-(2,3-dihydro-1H-inden-2-yl)-6-((2-fluorophenyl)amino)-N-methylpicolinamide hydrochloride]",C (Increase in comparison with non-treated of 1.2-1.7 fold is shown as C)
2,"COc1ccccc1Nc1cc(N)cc(C(=O)NC2Cc3ccccc3C2)n1.Cl [Example 133, 4-amino-N-(2,3-dihydro-1H-inden-2-yl)-6-((2-methoxyphenyl)amino)picolinamide hydrochloride]",C (Increase in comparison with non-treated of 1.2-1.7 fold is shown as C)
3,"Cl.Nc1cc(Nc2cccc(F)c2)nc(C(=O)Nc2ccccc2)c1 [Example 134, 4-Amino-6-((3-fluorophenyl)amino)-N-phenylpicolinamide hydrochloride]",A (Increase in comparison with non-treated of >2.0 fold is shown as A)
4,"COc1cccc(Nc2cc(N)cc(C(=O)Nc3ccccc3)n2)c1.Cl [Example 135, 4-Amino-6-((3-methoxyphenyl)amino)-N-phenylpicolinamide hydrochloride]",A (Increase in comparison with non-treated of >2.0 fold is shown as A)
5,"Cc1cccc(NC(=O)c2cc(N)cc(Nc3cccc(F)c3)n2)c1.Cl [Example 136, 4-Amino-6-((3-fluorophenyl)amino)-N-(m-tolyl)picolinamide hydrochloride]",A (Increase in comparison with non-treated of >2.0 fold is shown as A)
6,"Cl.Nc1cc(Nc2cccc(F)c2)nc(C(=O)NC2Cc3ccccc3C2)c1 [Example 138, 4-Amino-N-(2,3-dihydro-1H-inden-2-yl)-6-((3-fluorophenyl)amino)picolinamide hydrochloride]",A (Increase in comparison with non-treated of >2.0 fold is shown as A)
7,"Cl.Nc1cc(Nc2ccccc2F)nc(C(=O)NC2Cc3ccccc3C2)c1 [Example 139, 4-Amino-N-(2,3-dihydro-1H-inden-2-yl)-6-((2-fluorophenyl)amino)picolinamide hydrochloride]",C (Increase in comparison with non-treated of 1.2-1.7 fold is shown as C)
8,"Cl.Nc1cc(Nc2cc(F)cc(F)c2)nc(C(=O)NC2Cc3ccccc3C2)c1 [Example 140, 4-Amino-6-((3,5-difluorophenyl)amino)-N-(2,3-dihydro-1H-inden-2-yl)picolinamide hydrochloride]",A (Increase in comparison with non-treated of >2.0 fold is shown as A)
9,"COc1cccc(Nc2cc(N)nc(C(=O)NC3Cc4ccccc4C3)c2)c1.Cl [Example 141, 6-Amino-N-(2,3-dihydro-1H-inden-2-yl)-4-((3-methoxyphenyl)amino)picolinamide hydrochloride]",C (Increase in comparison with non-treated of 1.2-1.7 fold is shown as C)
